US20090042904A1 (LABORATORIOS DEL DR. ESTEVE S.A., priority 2004, published 2009)

What follows are molecules tested against T1, 5HT6-human recombinant receptor (Homo sapiens, UniProt P50406) (assay: Binding to serotonin receptor 5-HT6 ([3H]-LSD displacement)). Conditions: membranes of HEK-293 cells expressing the receptor; radioligand [3H]-LSD 2.7 nM; 60 minutes at 37° C.
T1 construct: purchased Receptor Biology; host or cells: HEK-293 cells (membranes)
Experimental: I) Binding to Serotonin Receptor 5-HT6
Cell membranes of HEK-293 cells expressing the 5HT6-human recombinant receptor were supplied by Receptor Biology. In said membranes the receptor concentration is 2.18 pmol/mg protein and the protein concentration is 9.17 mg/ml. The experimental protocol follows the method of B. L. Roth et al. [B. L. Roth, S. C. Craigo, M. S. Choudhary, A. Uluer, F. J. Monsma, Y. Shen, H. Y. Meltzer, D. R. Sibley: Binding of Typical and Atypical Antipsychotic Agents to 5-Hydroxytryptamine-6 and Hydroxytryptamine-7 Receptors. The Journal of Pharmacology and Experimental Therapeutics, 1994, 268, 1403] with the following slight changes. The respective part of the literature description is hereby incorporated by reference and forms part of the disclosure.
The commercial membrane is diluted (1:40 dilution) with the binding buffer: 50 mM Tris-HCl, 10 mM MgCl2,0.5 mM EDTA (pH 7.4). The radioligand used is [^3H]-LSD at a concentration of 2.7 nM with a final volume of 200 μl. Incubation is initiated by adding 100 μl of membrane suspension, (≈22.9 μg membrane protein), and is prolonged for 60 minutes at a temperature of 37° C. The incubation is ended by fast filtration in a Brandel Cell Harvester through fiber glass filters made by Schleicher & Schuell GF 3362 pretreated with a solution of polyethylenimine at 0.5%. The filters are washed three times with three milliliters of buffer Tris-HCl 50 mM pH 7.4. The filters are transferred to flasks and 5 ml of Ecoscint H liquid scintillation cocktail are added to each flask. The flasks are allowed to reach equilibrium for several hours before counting with a Wallac Winspectral 1414 scintillation counter. Non-specific binding is determined in the presence of 100 μM of serotonin. Tests were made in triplicate. The inhibition constants (Ki, nM) were calculated by non-linear regression analysis using the program EBDA/LIGAND described in Munson and Rodbard, Analytical Biochemistry, 1980, 107, 220, the respective part of which is hereby incorporated by reference and forms part of the disclosure.
The binding of the substituted phenyl-piperazine compounds to the 5-HT6 receptor was determined as described above.

T1 sequence (P50406 whole entry): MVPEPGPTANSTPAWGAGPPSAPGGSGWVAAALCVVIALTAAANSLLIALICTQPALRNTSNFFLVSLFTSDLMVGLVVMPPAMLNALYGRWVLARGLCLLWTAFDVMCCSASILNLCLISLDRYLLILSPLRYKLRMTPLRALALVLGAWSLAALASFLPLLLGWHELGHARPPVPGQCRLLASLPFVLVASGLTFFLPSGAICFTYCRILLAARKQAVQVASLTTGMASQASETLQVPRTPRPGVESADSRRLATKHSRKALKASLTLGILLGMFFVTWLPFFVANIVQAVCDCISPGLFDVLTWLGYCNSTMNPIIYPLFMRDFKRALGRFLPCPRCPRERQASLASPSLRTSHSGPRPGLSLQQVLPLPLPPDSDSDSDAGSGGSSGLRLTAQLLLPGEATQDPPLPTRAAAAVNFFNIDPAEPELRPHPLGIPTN

Row | Structure (SMILES) | Ki
1 | CN1CCN(c2ccc(OCc3ccccc3)c(NCCc3ccccc3)c2)CC1 [Example 9, [2-Benzyloxy-5-(4-methyl-piperazin-1-yl)-phenyl]-phenethyl-amine] | 1280 nM
2 | COc1ccc(N2CCN(C)CC2)cc1NCc1ccccc1 [Example 11, Benzyl-[2-methoxy-5-(4-methyl-piperazin-1-yl)-phenyl]-amine] | 409 nM
3 | CC(=O)N(Cc1ccccc1)c1ccc(N2CCN(C)CC2)cc1N [Example 23, N-[2-Amino-4-(4-methyl-piperazin-1-yl)-phenyl]-N-benzyl-acetamide] | 164 nM

Next, values leading:

Row | Ki | Structure (SMILES)
4 | 108 nM | CN1CCN(c2ccc(C#N)c(NCc3ccccc3)c2)CC1 [Example 5, 2-Benzylamino-4-(4-methyl-piperazin-1-yl)-benzonitrile]
5 | 462 nM | COC(=O)c1ccc(N2CCN(C)CC2)cc1NCCc1ccccc1 [Example 6, 4-(4-Methyl-piperazin-1-yl)-2-phenethylamino-benzoic acid methyl ester]
6 | 402 nM | CN1CCN(c2ccc(OCc3ccccc3)c(NCc3ccco3)c2)CC1 [Example 10]
7 | 60.2 nM | CN1CCN(c2ccc(NS(=O)(=O)c3ccccc3)c(NCc3ccccc3)c2)CC1 [Example 24, N-[2-Benzylamino-4-(4-methyl-piperazin-1-yl)-phenyl]-benzenesulfonamide]
